Test results from patent US6852755B1 (priority 1999, dated 2005).

Test system: breast carcinoma xenograft (50% MDA MB361 cells expressing β-galactosidase plus 50% MDA MB361-STCPG2(O)3 cells expressing surface tethered carboxypeptidase G2 …)
Design: species or system Nu/Nu BalbC mouse
Conditions: mouse, in vivo

SMILES | time up to which 50% survival was found post-treatment | time for which a 50% survival rate was provided
O=C(O)CC[C@H](NC(=O)c1ccc(N(CCCl)CCCl)c(F)c1)C(=O)O [B, {3-fluoro-4-[bis(2-chloroethyl)amino]benzoyl}-L-glutamic acid] | about 70 days | –
O=C(O)CC[C@H](NC(=O)c1cc(F)c(N(CCI)CCI)c(F)c1)C(=O)O [Example 1, {3,5-difluoro-4-[bis(2-iodoethyl)amino]benzoyl}-L-glutamic acid] | – | over 200 days
